In the test the test system is Vaccinia virus. As to the kind of experiment: Antiviral activity against Vaccinia virus infected in human skin fibroblasts assessed as inhibition of virus-induced cytopathogenicity. In kind it is functional, organism-based. Particulars: Orthopoxvirus vaccinia. On the technique in general: Damage to the host cells serves as the signal in cytopathic effect assays.

Molecules are shown by their SMILES. The source made the active and inactive calls. No cut-off for these calls is given here.

`O=c1[nH]c(=O)n([C@@H]2O[C@H](CO)[C@@H](O)[C@@H]2O)cc1O`: the inhibition result is “Active”.
The same measure for `O=c1ccn([C@@H]2O[C@H](CO)[C@@H](O)[C@@H]2O)c(=O)[nH]1` [ARAURIDINE]: “Active”; for `Cc1cn([C@@H]2O[C@H](CO)[C@@H](O)[C@@H]2O)c(=O)[nH]c1=O`: “Active”; for `O=c1[nH]c(=O)n([C@@H]2O[C@H](CO)[C@@H](O)[C@@H]2O)cc1[N+](=O)[O-]`: “Active”.
As for `N#Cc1cn([C@@H]2O[C@H](CO)[C@@H](O)[C@@H]2O)c(=O)[nH]c1=O`, the inhibition entry is “Active”.

(Values after ChEMBL document CHEMBL3227984, “5-Substituted uracil arabinonucleosides as potential antiviral agents” (J Med Chem, 1979).)
